The record followed here is PubChem BioAssay (NCI).

Test systems include HOP-18 NSCLC; UACC-257 melanoma; SK-MEL-5 melanoma; HOP-62 NSCLC; SR leukemia; 786-0 renal; SW-620 colon; HCT-116 colon; EKVX NSCLC; TK-10 renal; K-562 leukemia; SF-539 CNS; ACHN renal; MALME-3M melanoma; UACC-62 melanoma; BT-549 breast; PC-3 prostate; MDA-MB-231 breast; HS 578T breast.
Holding throughout (test): inhibition of tumour cell growth, NCI panel, 48 h

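Five compound concentrations were applied to cells in 96-well plates for 48 hours; endpoints were derived by simple linear interpolation of the resulting dose-response curve. The concentration for full growth arrest is given as TGI.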

Take `Cc1ccccc1N=Cc1ccc(N(CCC#N)S(=O)(=O)c2ccccc2)cc1`: the TGI in the experiment with HOP-18 NSCLC, in the experiment with UACC-257 melanoma, in the experiment on SK-MEL-5 melanoma, with HOP-62 NSCLC, in the experiment with SR leukemia and in the experiment on 786-0 renal was above 100 µM throughout. Besides, the TGI with SW-620 colon, in the experiment with HCT-116 colon, with EKVX NSCLC, with TK-10 renal, in the experiment on K-562 leukemia and in the experiment on SF-539 CNS was above 100 µM in each case. The TGI with ACHN renal, with MALME-3M melanoma and with UACC-62 melanoma was above 100 µM in each case.

In the case of `CN(C)CCSC(=Nc1ccccc1)N1C=COC=C1`, the TGI in the experiment on HOP-18 NSCLC was above 100 µM; in the experiment on UACC-257 melanoma it was 33.8 µM; with BT-549 breast it was above 100 µM; in the experiment with SK-MEL-5 melanoma, 34 µM; with PC-3 prostate, 95.5 µM; in the experiment with HOP-62 NSCLC, above 100 µM. For the same molecule, the TGI is above 100 µM in the experiment with SR leukemia; 38.9 µM in the experiment on 786-0 renal; 43.5 µM with SW-620 colon; 41.1 µM in the experiment on MDA-MB-231 breast; 45 µM in the experiment on HCT-116 colon; above 100 µM with EKVX NSCLC. In addition, the TGI with TK-10 renal was above 100 µM; in the experiment on K-562 leukemia, above 100 µM; with HS 578T breast, above 100 µM; in the experiment on SF-539 CNS it was above 89 µM; in the experiment with ACHN renal it was above 100 µM; with MALME-3M melanoma it was above 81.8 µM. In addition, in the experiment with UACC-62 melanoma, the TGI is 30.9 µM.
